According to article PMC10180054, “Design, Synthesis and Biological Evaluation of Novel Pleuromutilin Derivatives Containing 6-Chloro-1-R-1H-pyrazolo[3,4-d]pyrimidine-4-amino Side Chain” (Molecules, 2023):
Converted amounts (≈) assume the structure as drawn.

Experiments:
MRSA ATCC 43300 = test: MIC/MBC by broth dilution (CLSI); assay type: cell-based, Staphylococcus aureus; details: Staphylococcus aureus; for MIC: MRSA ATCC 43300, broth dilution, 24 h, 37 °C, read-out: MIC; for MBC: MRSA ATCC 43300, 99.9% of the bacteria killed
Experimental: (§1) The in vitro antimicrobial activity of the pleuromutilin derivatives was assessed against MRSA ATCC 43300, S. aureus ATCC 29213, S. aureus 144 and S. aureus AD3 according to the Clinical and Laboratory Standards Institute (CLSI). Tiamulin was used as a positive control drug. The results were summarized as the minimum inhibitory concentration (MIC) and the minimum bactericidal concentration (MBC) in Table 1 and Table 2. In addition, MIC results for the pleuromutilin derivatives against four Gram-negative bacteria are supplied in Tables S2 and S3.
(§2) The MIC and MBC values of the synthesized novel pleuromutilin derivatives against MRSA ATCC 43300, S. aureus ATCC 29213, S. aureus 144 and S. aureus AD3 were measured. Tiamulin was used as a positive control drug. The MIC and MBC values were manipulated by broth dilution according to the Clinical and Laboratory Standards (CLSI). Each compound to be measured was dissolved in a solution of 95% deionized water, 2.5% dimethyl sulfoxide (DMSO) and 2.5% Tween-80 with a concentration of 1280 µg/mL. Subsequently, serial twofold dilutions were made in a concentration range from 64 µg/mL to 0.0625 µg/mL. The working bacterial suspension was inoculated into each well, which provided the final inoculum density of 5 × 10^5 CFU/mL. Three parallel experiments were performed for each compound.
(§3) Overall, 25 µL of the bacterial solution from the wells with no obvious bacterial growth was inoculated on MH agar plates. Then, the inoculated MH agar plates were further cultured at 37 °C for 24 h.

S. aureus 144 = test: MIC/MBC by broth dilution (CLSI); assay type: cell-based; details: Staphylococcus aureus; S. aureus 144 (clinical strain)
Experimental: as §1, §2, §3

S. aureus AD3 = test: MIC/MBC by broth dilution (CLSI); assay type: cell-based; details: Staphylococcus aureus, S. aureus AD3 (clinical strain)
Experimental: as §1, §2, §3

S. aureus ATCC 29213 = test: MIC/MBC by broth dilution (CLSI); assay type: cell-based; details: Staphylococcus aureus; for MIC: S. aureus ATCC 29213, broth dilution, 24 h, 37 °C; for MBC: S. aureus ATCC 29213
Experimental: as §1, §2, §3

| Structure (SMILES) | MIC (MRSA ATCC 43300) | MIC (S. aureus 144) | MIC (S. aureus AD3) | MIC (S. aureus ATCC 29213; ATCC29213) | melting point | MBC (MRSA ATCC 43300) | MBC (S. aureus 144) | MBC (S. aureus AD3; 24 h) | MIC (S. aureus AD3; 24 h) | MBC (S. aureus ATCC 29213; ATCC29213) | MBC (S. aureus ATCC 29213; ATCC29213, 24 h) | MBC (S. aureus AD3) |
| --- | --- | --- | --- | --- | --- | --- | --- | --- | --- | --- | --- | --- |
| C=C[C@]1(C)C[C@@H](OC(=O)CSc2ccc(Nc3nc(Cl)nc4c3cnn4-c3cccc(OC)c3)cc2)[C@]2(C)[C@H](C)CC[C@]3(CCC(=O)[C@H]32)[C@@H](C)[C@@H]1O [Compound 17c, 22-[4-(6-Chloro-1-(3-methoxyphenyl)-1H-pyrazolo[3,4-d]pyrimidine-4-yl)amino-Phenylsulfanyl]-22-deoxypleuromutilin] | > 64 µg/mL | > 64 µg/mL | > 64 µg/mL | > 64 µg/mL | 97 to 102 °C |  |  |  |  |  |  |  |
| C=C[C@]1(C)C[C@@H](OC(=O)CNc2nc(Cl)nc3c2cnn3-c2ccccc2F)[C@]2(C)[C@H](C)CC[C@]3(CCC(=O)[C@H]32)[C@@H](C)[C@@H]1O [Compound 18b, 22-[(6-Chloro-1-(2-fluorophenyl)-1H-pyrazolo[3,4-d]pyrimidine-4-yl)amino]-22-deoxypleuromutilin] | > 64 µg/mL | > 64 µg/mL | > 64 µg/mL | > 64 µg/mL | 107 to 110 °C |  |  |  |  |  |  |  |
| C=C[C@]1(C)C[C@@H](OC(=O)CSc2ccc(Nc3nc(Cl)nc4c3cnn4-c3ccccc3F)cc2)[C@]2(C)[C@H](C)CC[C@]3(CCC(=O)[C@H]32)[C@@H](C)[C@@H]1O [Compound 18c, 22-[4-(6-Chloro-1-(2-fluorophenyl)-1H-pyrazolo[3,4-d]pyrimidine-4-yl)amino-Phenylsulfanyl]-22-deoxypleuromutilin] | > 64 µg/mL | > 64 µg/mL | > 64 µg/mL | > 64 µg/mL | 123 to 127 °C |  |  |  |  |  |  |  |
| C=C[C@]1(C)C[C@@H](OC(=O)CNc2nc(Cl)nc3c2cnn3-c2ccc(F)cc2)[C@]2(C)[C@H](C)CC[C@]3(CCC(=O)[C@H]32)[C@@H](C)[C@@H]1O [Compound 19b, 22-[(6-Chloro-1-(4-fluorophenyl)-1H-pyrazolo[3,4-d]pyrimidine-4-yl)amino]-22-deoxypleuromutilin] | 16 µg/mL (≈ 25.6 µM) | 32 µg/mL (≈ 51.3 µM) |  | 16 µg/mL (≈ 25.6 µM) | 112 to 115 °C | > 64 µg/mL | > 64 µg/mL | > 64 µg/mL | 8 µg/mL (≈ 12.8 µM) | > 64 µg/mL |  |  |
| C=C[C@]1(C)C[C@@H](OC(=O)CNc2nc(Cl)nc3c2cnn3-c2ccc(F)cc2F)[C@]2(C)[C@H](C)CC[C@]3(CCC(=O)[C@H]32)[C@@H](C)[C@@H]1O [Compound 20b, 22-[(6-Chloro-1-(2,4-difluorophenyl)-1H-pyrazolo[3,4-d]pyrimidine-4-yl)amino]-22-deoxypleuromutilin] | > 64 µg/mL | > 64 µg/mL | > 64 µg/mL | > 64 µg/mL | 123 to 125 °C |  |  |  |  |  |  |  |
| C=C[C@]1(C)C[C@@H](OC(=O)CSc2ccc(Nc3nc(Cl)nc4c3cnn4-c3ccc(F)cc3F)cc2)[C@]2(C)[C@H](C)CC[C@]3(CCC(=O)[C@H]32)[C@@H](C)[C@@H]1O [Compound 20c, 22-[4-(6-Chloro-1-(2,4-difluorophenyl)-1H-pyrazolo[3,4-d]pyrimidine-4-yl)amino-Phenylsulfanyl]-22-deoxypleuromutilin] | > 64 µg/mL | > 64 µg/mL | > 64 µg/mL | > 64 µg/mL | 132 to 134 °C |  |  |  |  |  |  |  |
| C=C[C@]1(C)C[C@@H](OC(=O)CNc2nc(Cl)nc3c2cnn3-c2cc(F)ccc2F)[C@]2(C)[C@H](C)CC[C@]3(CCC(=O)[C@H]32)[C@@H](C)[C@@H]1O [Compound 21b, 22-[(6-Chloro-1-(2,5-difluorophenyl)-1H-pyrazolo[3,4-d]pyrimidine-4-yl)amino]-22-deoxypleuromutilin] | > 64 µg/mL | > 64 µg/mL | > 64 µg/mL | > 64 µg/mL | 121 to 125 °C |  |  |  |  |  |  |  |
| C=C[C@]1(C)C[C@@H](OC(=O)CSc2ccc(Nc3nc(Cl)nc4c3cnn4-c3cc(F)ccc3F)cc2)[C@]2(C)[C@H](C)CC[C@]3(CCC(=O)[C@H]32)[C@@H](C)[C@@H]1O [Compound 21c, 22-[4-(6-Chloro-1-(2,5-difluorophenyl)-1H-pyrazolo[3,4-d]pyrimidine-4-yl)amino-Phenylsulfanyl]-22-deoxypleuromutilin] | > 64 µg/mL | > 64 µg/mL | > 64 µg/mL | > 64 µg/mL | 115 to 118 °C |  |  |  |  |  |  |  |
| C=C[C@]1(C)C[C@@H](OC(=O)CNc2nc(Cl)nc3c2cnn3-c2ccc(F)c(F)c2)[C@]2(C)[C@H](C)CC[C@]3(CCC(=O)[C@H]32)[C@@H](C)[C@@H]1O [Compound 22b, 22-[(6-Chloro-1-(3,4-difluorophenyl)-1H-pyrazolo[3,4-d]pyrimidine-4-yl)amino]-22-deoxypleuromutilin] | 16 µg/mL (≈ 24.9 µM) | 16 µg/mL (≈ 24.9 µM) |  | 8 µg/mL (≈ 12.5 µM) | 130 to 132 °C | > 64 µg/mL | > 64 µg/mL | > 64 µg/mL | 8 µg/mL (≈ 12.5 µM) |  | > 64 µg/mL |  |
| C=C[C@]1(C)C[C@@H](OC(=O)CSc2ccc(Nc3nc(Cl)nc4c3cnn4-c3ccc(OC(F)(F)F)cc3)cc2)[C@]2(C)[C@H](C)CC[C@]3(CCC(=O)[C@H]32)[C@@H](C)[C@@H]1O [Compound 23c, 22-[4-(6-Chloro-1-(4-(yrifluoromethoxy)Phenyl)-1H-pyrazolo[3,4-d]pyrimidine-4-yl)amino-Phenylsulfanyl]-22-deoxypleuromutilin] | 0.5 µg/mL (≈ 0.626 µM) | 1 µg/mL (≈ 1.25 µM) | 0.25 µg/mL (≈ 0.313 µM) | 0.5 µg/mL (≈ 0.626 µM) | 144 to 147 °C | 1 µg/mL (≈ 1.25 µM) | 2 µg/mL (≈ 2.51 µM) |  |  | 1 µg/mL (≈ 1.25 µM) |  | 1 µg/mL (≈ 1.25 µM) |
| C=C[C@]1(C)C[C@@H](OC(=O)CNc2nc(Cl)nc3c2cnn3-c2cccc(Cl)c2)[C@]2(C)[C@H](C)CC[C@]3(CCC(=O)[C@H]32)[C@@H](C)[C@@H]1O [Compound 24b, 22-[(6-Chloro-1-(3-chlorophenyl)-1H-pyrazolo[3,4-d]pyrimidine-4-yl)amino]-22-deoxypleuromutilin] | > 64 µg/mL | > 64 µg/mL | > 64 µg/mL | > 64 µg/mL | 117 to 119 °C |  |  |  |  |  |  |  |
| C=C[C@]1(C)C[C@@H](OC(=O)CSc2ccc(Nc3nc(Cl)nc4c3cnn4-c3cccc(Cl)c3)cc2)[C@]2(C)[C@H](C)CC[C@]3(CCC(=O)[C@H]32)[C@@H](C)[C@@H]1O [Compound 24c, 22-[4-(6-Chloro-1-(3-chlorophenyl)-1H-pyrazolo[3,4-d]pyrimidine-4-yl)amino-Phenylsulfanyl]-22-deoxypleuromutilin] | > 64 µg/mL | > 64 µg/mL | > 64 µg/mL | > 64 µg/mL | 121 to 124 °C |  |  |  |  |  |  |  |
| C=C[C@]1(C)C[C@@H](OC(=O)CNc2nc(Cl)nc3c2cnn3-c2ccc(Cl)cc2)[C@]2(C)[C@H](C)CC[C@]3(CCC(=O)[C@H]32)[C@@H](C)[C@@H]1O [Compound 25b, 22-[(6-Chloro-1-(4-chlorophenyl)-1H-pyrazolo[3,4-d]pyrimidine-4-yl)amino]-22-deoxypleuromutilin] | > 64 µg/mL | > 64 µg/mL | > 64 µg/mL | > 64 µg/mL | 107 to 111 °C |  |  |  |  |  |  |  |
| C=C[C@]1(C)C[C@@H](OC(=O)CSc2ccc(Nc3nc(Cl)nc4c3cnn4-c3ccc(Cl)cc3)cc2)[C@]2(C)[C@H](C)CC[C@]3(CCC(=O)[C@H]32)[C@@H](C)[C@@H]1O [Compound 25c, 22-[4-(6-Chloro-1-(4-chlorophenyl)-1H-pyrazolo[3,4-d]pyrimidine-4-yl)amino-Phenylsulfanyl]-22-deoxypleuromutilin] | 8 µg/mL (≈ 10.7 µM) | > 64 µg/mL | 8 µg/mL (≈ 10.7 µM) | 16 µg/mL (≈ 21.4 µM) | 124 to 129 °C | 16 µg/mL (≈ 21.4 µM) |  |  |  | > 64 µg/mL |  | 32 µg/mL (≈ 42.7 µM) |
